Patent US20110237535A1, “Use of Induced Pluripotent Cells and other Cells for Screening Compound Libraries” (priority 2010, published 2011)
Entries after “also recorded” stand apart in the source; their conditions may differ. Like-named read-outs stand apart in the source and are kept apart here.

Key:
HeLa cells = format: cell-based
Description: In another experiment HeLa cells were treated with 100 uM of tamoxifen (a calcium influx stimulator), doxorubicin (a DNA damaging agent), cycloheximide (a protein synthesis inhibitor), digitonin (a mild detergent), and a buffer, and monitored every 15 minutes on a BIND™ Reader for 40 hours in a 37° C. incubator. The cytotoxic compounds each have distinct mechanisms of action that have distinct kinetic profiles in the assays of the invention. Toxins can be tested for their effect on differing types of cells and can be placed into a class or sub-class of toxins (e.g. calcium influx stimulator) based on their kinetic profiles. These assays have a higher throughput than electrical impedance testing for screening and profiling of toxic compounds.

[1] = system: Murine embryonic stem cell-derived cardiomyocytes; assay: Beating amplitude and frequency of cardiomyocytes, PWV at 4 reads per second; format: cell-based
Description: Murine embryonic stem cell-derived cardiomyocytes were added to wells of a biosensor and a BIND™ Reader recorded PWVs at the rate of 4 reads per second. One well was treated with KCl and another well was not treated. The cells beat synchronously when cultured on BIND™ optical biosensors and the frequency of the beating can be detected. […] The BIND™ Reader detects beating frequency and rate as oscillations of positive-negative PWV shifts. Kinetic PWV profiles can be used to accurately measure beating rate and frequency. Therefore, the assay provides an ultra high-throughput assay to measure off-target drug effects on cardiotoxicity and contractility.
In another experiment the cardiomyocytes were plated at 20,000 cells per well on fibronectin coated biosensor plates. The cells were incubated for 72 h at 37° C. before the experiment. The cells were monitored for 3 minutes before KCl was added to 50 mM final concentration.
In another experiment cardiomyocytes were treated for 17 hours with several different concentrations of doxorubicin (10 μM, 1 μM, 0.1 μM, 0.01 μM, and 0 μM). The beating amplitude and frequency was measured at 4 reads/second prior to doxorubicin treatment, then again after the 17 hour doxorubicin incubation.

cardiomyocytes = assay: Cardiomyocyte beating recorded with refined high-speed BIND Cartridge Reader; format: cell-based; conditions: 6, 10 and 15 minutes after addition, FIG. 17
Description: An Ocean Optics HT2000+ spectrometer in a BIND™ Cartridge Reader was altered so that the slit that allows light into the spectrometer was widened, allowing more light to enter the enter the spectrometer. Therefore, recordings of up to 1000 Hz, i.e. up to 1000 readings/second can be obtained when the BIND™ Cartridge Reader is “parked” (i.e., the BIND™ Cartridge Reader remains in one position over, e.g., a well holding cells). The recordings are made continually in real-time. Recordings can be taken at about 2, 4, 10, 50, 80, 100, 250, 280, 300, 400, 500, 600, 700, 800, 900, 1,000 or more Hz (or any range between about 2 and about 1,000 Hz).
The refined BIND™ Cartridge Reader was used to take measurements of cardiomyocyte beating. […] By comparison, the data in Examples 1 and 2 was measured at 4 Hz. The increased sampling rate allows a much more refined look at the shape of each individual beat. Different beating “phenotypes” can be determined from well-to-well, in addition, the difference between synchronous beating across the well and asynchronous beating can be determined. […]
Amitriptyline is a tricyclic antidepressant sold under the trade name Elavil™. […] Amitriptyline was added to cardiomyocytes that were beating in culture and PWVs were constantly monitored. […]

[2] = system: mES-derived cardiomyocytes (Cor.At); assay: Doxorubicin toxicity on mES-derived cardiomyocytes, constant PWV monitoring; format: cell-based, murine
Description: mES-derived cardiomyocytes (Cor.At) were obtained from Axiogenesis/Lonza. 5,000 cells per well were plated on fibronectin-coated 384 well biosensor plates for 24 h before experiment. These cells beat in culture. Cells were treated with doxorubicin for 17 h at 37° C. with constant monitoring using the BIND™ Reader. […] There is an oscillation of PWVs that indicates the beating of the cells. The amplitude of the beating becomes stronger over time. That is, there is Y axis spread of the PWV reading grows larger over time as the cells beat stronger in culture.

[3] = FIG. 6-9, cell line not restated in these blocks
[4] = KCl-treated well vs untreated well, FIG. 11

Compound | kinetic profile (PWV over time) (HeLa cells; [3]) | also measured
4-hydroxy-tamoxifen | faster onset of toxicity than tamoxifen | –
CC[C@@]1(O)C(=O)OCc2c1cc1n(c2=O)Cc2cc3ccccc3nc2-1 [Camptothecin] | somewhat different kinetic profile | –
N.N.[Cl][Pt][Cl] [Cisplatin] | sudden onset, steep decline, followed by a negative PWV plateau | –
[Cl-].[K+] [KCl] | – | rate and frequency of the beating ([1]; KCl 50 mM final concentration, added after 3 minutes of monitoring, 20,000 cells per well, FIG. 13): drastically reduced; amplitude of the beating [1, 4]: loss of amplitude of the beating; frequency of the beating [1, 4]: decrease in the frequency of the beating
CN(C)CCC=C1c2ccccc2CCc2ccccc21 [amitriptyline] | – | beating pattern after compound addition (cardiomyocytes): change from regular, synchronous beating to irregular, non-synchronous beating
COc1cccc2c1C(=O)c1c(O)c3c(c(O)c1C2=O)C[C@@](O)(C(=O)CO)C[C@@H]3O[C@H]1C[C@H](N)[C@H](O)[C@H](C)O1 [doxorubicin] | sudden onset, steep decline, followed by a negative PWV plateau | PWV readings ([2]; doxorubicin 17 h at 37° C., 5,000 cells per well, FIG. 10): PWV readings become negative; also recorded: dose dependant; amplitude of beating over time ([2]; doxorubicin 17 h at 37° C., FIG. 10A): becomes weaker over time; amplitude and frequency of beating ([1]; 17 hours doxorubicin at 10 μM, 1 μM, 0.1 μM, 0.01 μM, 0 μM, FIG. 14): disrupted by doxorubicin in a concentration-dependent manner
CO[C@@]12[C@H](COC(N)=O)C3=C(C(=O)C(C)=C(N)C3=O)N1C[C@@H]1N[C@@H]12 [mitomycin] | sudden onset, steep decline, followed by a negative PWV plateau | –
[K+].[K+].[O]=[Cr](=[O])([O-])[O][Cr](=[O])(=[O])[O-] [potassium dichromate] | – | kinetic profile (PWV over time) (HeLa cells): sudden onset, steep decline, followed by a negative PWV plateau
O=C(c1ccc(OCCN2CCCCC2)cc1)c1c(-c2ccc(O)cc2)sc2cc(O)ccc12 [raloxifene] | lack of cytotoxic response | –
CC/C(=C(\c1ccccc1)c1ccc(OCCN(C)C)cc1)c1ccccc1 [tamoxifen] | sharp downward shift in PWV at early time points | –
CC[C@]1(O)C[C@@H]2CN(CCc3c([nH]c4ccccc34)[C@@](C(=O)OC)(c3cc4c(cc3OC)N(C)[C@H]3[C@@](O)(C(=O)OC)[C@H](OC(C)=O)[C@]5(CC)C=CCN6CC[C@]43[C@@H]65)C2)C1 [vinblastine] | rapid acute response and then a gradual negative PWV shift over the long term | –
